# According to paper PMC10439310 (Nature microbiology, 2022):
# Tested on: inosine-5’-monophosphate dehydrogenase (IMPDH, gene: guaB)
# Format: binding, Bacillus anthracis
# Settings: [32P]-Ap4A, lysates of E. coli overexpressing B. anthracis ORFs
compound,measurement,value
"Nc1ncnc2c1ncn2[C@@H]1O[C@H](COP(=O)(O)OP(=O)(O)OP(=O)(O)OP(=O)(O)OC[C@H]2O[C@@H](n3cnc4c(N)ncnc43)[C@H](O)[C@@H]2O)[C@@H](O)[C@H]1O [Ap4A, diadenosine 5’,5’’’-P1,P4-tetraphosphate]",binding in DRaCALA screen (in words),putative Ap4A-binding partner
